Source: paper PMC5078989, “Targeted inhibition of the COP9 signalosome for treatment of cancer” (Nature Communications, 2016)

System: panel of cancer cell lines
Assay: Cell viability (CellTiter-Glo) dose-response across cancer cell line panel;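 further: after 72 h compound incubation with CellTiter-Glo ATP readout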
Type: cell-based, human
Conditions: Homo sapiens
Outline: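 Dose–response viability screen of a CSN5 inhibitor in over 500 cancer lines. Compound exposure lasted 72 h at 37 °C and 5% CO2, starting 4 h post-seeding. ATP luminescence (CellTiter-Glo) was read, and EC50 was obtained by nonlinear regression of percent inhibition.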

EC50 (HEC-251, HEC-251): 8160 nM
EC50 (HEC-265): 20000 nM
EC50 (HEL): 190 nM
EC50 (HEL 92.1.7, HEL 92.1.7): 94.8 nM
EC50 (HEY A8, Hey-A8): 114 nM
EC50 (HL-60, HL-60): 361 nM
EC50 (HLC-1): 981 nM
EC50 (HLE): 454 nM
EC50 (HLF): 739 nM
EC50 (HMC-1-8): 154 nM
EC50 (HPAC): 830 nM
EC50 (HPBALL, HPB-ALL): 333 nM
EC50 (HRT-18, HRT-18): 1860 nM
EC50 (HSC-2, HSC-2): 146 nM
EC50 (HSC-3, HSC-3): 292 nM
EC50 (HSC-4, HSC-4): 268 nM
EC50 (HT-29, HT-29): 2230 nM
EC50 (HT-1080, HT-1080): 215 nM
EC50 (Hep3B): 2560 nM
EC50 (Hep 3B2.1-7): 4280 nM
EC50 (Hs 294T): 1860 nM
EC50 (Hs 695T): 719 nM
EC50 (Hs766T, Hs 766T): 18800 nM
EC50 (Hs 852.T): 804 nM
EC50 (Hs 936.T): 202 nM
EC50 (Hs 939.T): 600 nM
EC50 (Hs 944.T): 898 nM
EC50 (HuH-6, HuH-6): 4960 nM
EC50 (HuP-T4, HUP-T4): 360 nM
EC50 (Huh-7, HuH-7): 723 nM
EC50 (IGR-37, IGR-37): 613 nM
EC50 (IGR-39, IGR-39): 545 nM
EC50 (IGROV-1, IGROV1): 399 nM
EC50 (IPC-298, IPC-298): 716 nM
EC50 (IST-MES2): 421 nM
EC50 (Ishikawa): 213 nM
EC50 (J82, J82): 1650 nM
EC50 (JHH7, JHH-7): 12200 nM
EC50 (JHH-4, JHH-4): 594 nM
EC50 (JHOM-1): 1300 nM
EC50 (JHOS-2): 274 nM
EC50 (JHUEM-2): 952 nM
EC50 (JHUEM-3): > 30000 nM
EC50 (JIMT-1, JIMT-1): 8670 nM
EC50 (JL-1): 2290 nM
EC50 (JU77): 304 nM
EC50 (JVM-2, JVM-2): 83.5 nM
EC50 (K029AX): 1740 nM
EC50 (KARPAS-422, KARPAS-422): 654 nM
EC50 (KATO III): 711 nM
EC50 (KBM-7, KBM-7): 106 nM
EC50 (KCI-MOH1): 2000 nM
EC50 (KE-97, KE-97): 210 nM
EC50 (KLE): 897 nM
EC50 (KM12, KM12): 1570 nM
EC50 (KMM-1, KMM-1): 462 nM
EC50 (KMRC-1, KMRC-1): 435 nM
EC50 (KMRC-20): 1520 nM
EC50 (KMS-11, KMS-11): 426 nM
EC50 (KNS-42, KNS-42): 282 nM
EC50 (KNS-60): 486 nM
EC50 (KNS-62, KNS-62): 398 nM
EC50 (KP-1N): 15600 nM
EC50 (KP-1NL): 13600 nM
EC50 (KP-2): 4050 nM
EC50 (KP-4, KP4): 828 nM
EC50 (KS-1): 336 nM
EC50 (KU-19-19, KU-19-19): 922 nM
EC50 (KURAMOCHI): 1250 nM
EC50 (KYSE-30, KYSE-30): 356 nM
EC50 (KYSE-70, KYSE-70): 1060 nM
EC50 (KYSE-150, KYSE-150): 725 nM
EC50 (KYSE-180, KYSE-180): 1290 nM
EC50 (Kasumi-3, Kasumi3): 292 nM
EC50 (Kasumi-6): 286 nM
EC50 (L3.3): 120 nM
EC50 (L-363, L-363): 139 nM
EC50 (L-428, L-428): 3080 nM
EC50 (LC-1/sq-SF): 926 nM
EC50 (LC-1F): 586 nM
EC50 (LC-2-ad, LC2/ad): 540 nM
EC50 (LCLC-103H): 573 nM
EC50 (LIM1899): 2310 nM
EC50 (LIM2099): 440 nM
EC50 (LIM2405): 305 nM
EC50 (LIM2550): 53.5 nM
EC50 (LMSU): 100 nM
EC50 (LN-18, LN-18): 178 nM
EC50 (LO68): 3750 nM
EC50 (LOU-NH91, LOU-NH91): 296 nM
EC50 (LOX IMVI): 262 nM
EC50 (LP-1, LP-1): 536 nM
EC50 (LS180, LS 180): 175 nM
EC50 (LUDLU-1, LUDLU-1): 2510 nM
EC50 (Li-7, Li-7): 827 nM
EC50 (Lu-65, LU65): 922 nM
EC50 (Lu-99, LU99): 98.5 nM
EC50 (M-07e): 1020 nM
EC50 (MCAS): 529 nM
EC50 (MCC13): 4250 nM
EC50 (MCC14/2): 36.1 nM
EC50 (MCC26): 652 nM
EC50 (MDA-MB-134-VI): 678 nM
EC50 (MDA-MB-157, MDA-MB-157): 8450 nM
EC50 (MDA-MB-175-VII): 448 nM
EC50 (MDA-MB-231, MDA-MB-231): 422 nM
EC50 (MDA-MB-415, MDA-MB-415): > 30000 nM
EC50 (MDA-MB-435S): 3550 nM
EC50 (MDA-MB-436, MDA-MB-436): 1430 nM
EC50 (MDA-MB-453, MDA-MB-453): 106 nM
EC50 (MDA-MB-468, MDA-MB-468): 396 nM
EC50 (MDST8, MDST8): 311 nM
EC50 (ME-180, ME180): 177 nM
EC50 (MEC1, MEC-1): 302 nM
EC50 (MEL-HO): 873 nM
EC50 (MEL-JUSO): 364 nM
EC50 (MES-SA): 932 nM
EC50 (MFE-280, MFE-280): 364 nM
EC50 (MFE-296, MFE-296): 109 nM
EC50 (MFE-319): 3660 nM
EC50 (MFM-223, MFM223): 105 nM
EC50 (MG-63, MG-63): 261 nM
EC50 (MIA PaCa-2, MIA PaCa-2): 518 nM
EC50 (MINO): 13.1 nM
EC50 (MKN-1, MKN1): 1020 nM
EC50 (MKN-45, MKN-45): 363 nM
EC50 (ML-2, ML-2): 57.1 nM
EC50 (MM127): 325 nM
EC50 (MM138): 251 nM
EC50 (MM170): 334 nM
EC50 (MM253): 35.5 nM
EC50 (MM370): 273 nM
EC50 (MM383): 281 nM
EC50 (MM386): 950 nM
EC50 (MM415): 675 nM
EC50 (MM426): 754 nM
EC50 (MM466): 2560 nM
EC50 (MM473, MM473): 589 nM
EC50 (MM485): 820 nM
EC50 (MM537): 84.6 nM
EC50 (MM576): 511 nM
EC50 (MM603): 415 nM
EC50 (MOG-G-CCM): 2350 nM
EC50 (MOLM-13, MOLM-13): 46.3 nM
EC50 (MOLP-8, MOLP-8): 132 nM
SMILES: NS(=O)(=O)OC[C@@H]1C[C@@H](n2ccc3c(N[C@H]4CCc5ccccc54)ncnc32)C[C@@H]1O [MLN4924]
